Test results published in US4454341A, “Naphthyl or tetrahydronaphthyl-substituted naphthoic acid and derivatives” (SRI International, priority 1983, dated 1984).

Tests used:
[1] = tested on: Hamster Tracheal Organ Culture (keratinization); assay: Tracheal organ culture assay (reversal of keratinization); format: cell-based; settings: 10 days in culture
Description: (§1) The ODC assay measures a compound's ability to prevent the induction of ODC. The tracheal organ culture assay measures a compound's ability to reverse keratinization.
The tracheal organ culture assay is carried out as follows. Tracheas are taken from hamsters that are in very early stages of vitamin A deficiency and placed in organ culture. At the time of culture, the animals are still gaining weight; the tracheal epithelium is generally low columnar or cuboidal, with only occasional patches of squamous metaplasia. Each trachea is opened from the larynxto the carina along the membranous dorsal wall and cultured in a serum-free medium (CMRL-1066; with crystalline bovine insulin, 0.1 μg/ml; hydrocortisone hemisuccinate, 0.1 μg/ml; glutamine, 2 mM; penicillin, 100 units/ml; and streptomycin, 100 μg/ml, added). Cultures are gassed with 50% oxygen, 45% nitrogen, and 5% CO2. The culture dishes are rocked at 35.5-36.0 degrees to allow the tracheas contact with both gas and medium. All tracheas are grown in medium containing no retinoid for the first 3 days. At the end of 3 days, some tracheas are harvested; almost all of these tracheas have significant squamous metaplasia, and approximately 60% have keratinized lesions. The remaining tracheas are then divided into different groups which are treated with either: (1) retinoid dissolved in dimethylsulfoxide (final concentration of DMSO in culture medium is never greater than 0.1%) or (2) an equivalent amount of DMSO alone. Culture medium is changed three times a week, and all of the remaining tracheas are harvested at the end of 10 days in culture. Tracheas are fixed in 10% buffered formalin and embedded in paraffin. Cross sections of five micrometers are made through the mid-portion, stained with hematoxylin and eosin, and then scored with a microscope for the presence of keratin and keratohyaline granules, both of which are found in approximately 90% of control cultures that received no retinoid for the entire 10 day culture period.

[2] = tested on: Ornithine Decarboxylase; assay: Ornithine decarboxylase (ODC) assay: inhibition of TPA induction of ODC in mouse skin; format: in vivo, mouse (female Charles River CD-1); settings: topical, 1 hour before TPA (17 nmol)
Description: as §1
The ODC assay is carried out as follows. Female Charles River CD-1 mice from Charles River Breeding Laboratories, Wilmington, Mass., are used (age 7 to 9 weeks). The dorsal hair of the mice is shaved 1 to 2 days before testing, and only mice showing no hair regrowth are used. A single dose of 12-O-tetradecanoylphorbol-13-acetate (TPA) (10.5 μg, 17 nmol) in 0.2 mL of acetone is applied topically to the back of each mouse. The test compound, at one of three dose levels (1.7, 17 and 170 nmol), dissolved in 0.2 mL of acetone is applied 1 hour before the TPA treatment to the test groups; the control group is treated with acetone alone. The mice are killed by cervical dislocations five hours after TPA treatment. Determinations are done in triplicate.
The epidermis is obtained from the sacrificed animals. To obtain sufficient material, the dorsal skins from 2 to 3 mice in each treatment group are pooled. The depilatory agent Nudit® (Helena Rubinstein, N.Y.) is applied to the shaved area of the skin; after 5 minutes, it is washed off thoroughly with cold tap water. Then the skin is excised and plunged immediately into ice-cold water; it is then placed in a 55° C. water bath for 30 seconds and reimmersed in ice-cold water for at least another 30 seconds. The skin is placed epidermis side up on a cold plate, and the epidermis is scraped off with a razor blade. The pooled epidermal sheets are homogenized (Polytron PT-10 homogenizer) at 0° to 4° C. for 15-20 seconds in 50 mM sodium phosphate and 0.1 mM ethylenediaminetetraacetic acid (EDTA), at a volume of 1 mL/skin.
The supernatant fraction remaining after centrifugation of the homogenate at 10,000×g for 30 seconds at 0° C. is used for the enzyme assay. Enzyme activity is determined using the microassay for ODC as described by Verma and Boutwell to measure the release of ^14 CO2 from DL-[1-^14 C]-ornithine (58 mCi/mmol) after incubation with the 10,000×g supernatant. The incubations are carried out by decanting, with a Pasteur pipette, 100 μL of the supernatant containing 100 to 120 μg of protein into two or three 15-mL Corex tubes in a shaking water bath at 37° C. The assay mixture in the tubes consists of 50 μL of 100 mM sodium phosphate buffer (pH 7.2), 10 μL of 4 mM pyridoxal phosphate, 40 μL of 25 mM dithiothreitol, and 1 μL of 0.1 M EDTA. The center wells in the tubes are filled with 200 μL of a 2:1 solution (v/v) of ethanolamine:2-methoxyethanol. The reaction is started by adding 50 μL of substrate (0.5 μCi of DL-[1-^14 C]-ornithine in 2 mM cold ornithine) at 1-minute intervals by injection to each of the stoppered tubes. Incubations are routinely carried out at 37° C. for 30 to 60 minutes. The reaction is stopped by addition of 0.5 ml of 2M citric acid, and incubation is continued for an additional hour without heating to ensure complete absorption of ^14 CO2.
Radioactivity is measured using a toluene-based scintillant (4 g of PPO and 50 mg of POPOP/L of toluene) in a Beckman LS-250 liquid scintillation counter. Enzyme activity is determined in triplicate and expressed as nanomoles of CO2 released in 30 minutes per milligram of protein. Enzyme activity is linear for the protein concentration used. The protein concentrations of the epidermal extracts are determined by the Lowry procedure, using bovine serum albumin as the standard.

[3] = tested on: ornithine decarboxylase (ODC); settings: literature, copending application or unpublished data; cited from earlier work

Row | SMILES | Reversal of Keratinization in Hamster Tracheal Organ Culture, Active Cultures (%) ([1]; Conc 10^-9 M) | Reversal of Keratinization in Hamster Tracheal Organ Culture, Active/Total Cultures ([1]; Conc 10^-9 M) | Reversal of Keratinization in Hamster Tracheal Organ Culture, Active Cultures (%) ([1]; Conc 10^-10 M) | Reversal of Keratinization in Hamster Tracheal Organ Culture, Active/Total Cultures ([1]; Conc 10^-10 M) | Reversal of Keratinization in Hamster Tracheal Organ Culture, Active Cultures (%) ([1]; Conc 10^-11 M) | Reversal of Keratinization in Hamster Tracheal Organ Culture, Active/Total Cultures ([1]; Conc 10^-11 M) | Inhibition of Induction of Ornithine Decarboxylase by 12-O-Tetradecanoylphorbol-13-acetate in Mouse Skin, % Inhibition of Control ([2]; Dose 1.7 nmol) [%] | Inhibition of Induction of Ornithine Decarboxylase by 12-O-Tetradecanoylphorbol-13-acetate in Mouse Skin, % Inhibition of Control ([2]; Dose 17 nmol) | activity in the ODC assay (in words) [3] | Reversal of Keratinization in Hamster Tracheal Organ Culture, Active Cultures (%) ([1]; Conc 10^-8 M) | Reversal of Keratinization in Hamster Tracheal Organ Culture, Active/Total Cultures ([1]; Conc 10^-8 M)
1 | CC1(C)CCC(C)(C)c2cc(-c3ccc4cc(C(=O)O)ccc4c3)ccc21 [6-(1,2,3,4-Tetrahydro-1,1,4,4-tetramethyl-6-naphthyl)-2-naphthoic acid] | 100 | 7/7 | 100 | 7/7 | 71 | 5/7 | 56 | 80% | – | – | –
2 | CC1=C(C=Cc2ccc3cc(C(=O)O)ccc3c2)C(C)(C)CCC1 [6-[2-(2,6,6-trimethyl-1-cyclohexen-1-yl)ethenyl]-2-naphthoic acid] | – | – | – | – | – | – | – | – | exhibited activity in the ODC assay | – | –
3 | CCOC(=O)c1ccc(/C=C(\C)c2ccc3c(c2)C(C)(C)CCC3(C)C)cc1 [Ethyl 4-[(E)-2-(1,2,3,4-tetrahydro-1,1,4,4-tetramethyl-6-naphthyl)-1-propen-1-yl]benzoate] | – | – | – | – | – | – | 86 | 86% | exhibits activity in the ODC assay | – | –
4 | CCOC(=O)c1ccc2cc(-c3ccc4c(c3)C(C)(C)CCC4(C)C)ccc2c1 [Ethyl 6-(1,2,3,4-tetrahydro-1,1,4,4-tetramethyl-6-naphthyl)-2-naphthoate] | – | – | – | – | – | – | 50 | 75% | – | – | –
5 | CC1=C(/C=C/C(C)=C/C=C/C(C)=C/C(=O)O)C(C)(C)CCC1 [Retinoic Acid] | 88 | 419/474 | 52 | 134/256 | – | – | – | 87-91% | – | 100 | 236/236
